# Results reported in patent US20090036540A1, “Guanylhydrazones in Methods of Treatment or Diagnosis as Modulators of Signal Transduction” (Cytokine PharmaSciences, Inc., priority 2003, published 2009).
# Entries after “also recorded” stand apart in the source; their conditions may differ.
# Legend:
# 4/4 macrophages [1] = experiment: Western blot of LPS-stimulated 4/4 macrophages for MAPK signaling molecules; assay type: cell-based, murine; settings: 0.1 and 1 μM, 1 hour pre-incubation, LPS 100 ng/ml 15 minutes
# Protocol: 4/4 macrophages were used for in vitro experiments and western blot analysis. An in vitro kinase assay was performed to reconfirm findings obtained with western blotting. […] 4/4 macrophages were grown to 70% confluence, pre-incubated for 1 hour with Semapimod (0.1 and 1 μM) and stimulated with LPS (100 ng/ml) for 15 minutes. Cells were harvested in sample buffer and whole cell lysates were loaded onto 10% SDS-PAGE and subsequently transferred to a PVDF membrane. Blots were stained with phospho-specific antibodies for various MAPK signaling molecules. […] Importantly, pRaf protein levels and pPak, upstream of Raf, were not affected due to Semapimod incubation. […] FIG. 6 Western blot: Reduced pP38, pJnk, pErk in 4/4 macrophages treated with Semapimod (1 and 0.1 μM) in LPS present conditions was seen. Moreover, the phosphorylation status of MKK4/7 (upstream of Jnk), and Mek1/2 (upstream of Erk) was affected due to Semapimod treatment. pRaf expression was not influenced by Semapimod. To test for equal loading, western blots were analyzed for actin expression. Similar results were obtained in three independent experiments.
# Raf kinase = experiment: Raf in vitro kinase assay (pMek immunoblot); assay type: biochemical; settings: active Raf kinase, 1 μM Semapimod for 5 and 10 minutes
# Protocol: A commercially available in vitro kinase kit (Upstate, cat#: 17-360) was used to study the direct effect of Semapimod on Raf kinase activity. […] Furthermore, active Raf together with Mek, without Semapimod, served as a positive control. Active Raf without the Mek-substrate, left untreated, served as a negative control. The in vitro kinase reaction was performed at 30 C.° for 20 minutes. Sample buffer was added to terminate the reaction, and loaded on […] SDS-PAGE. The immunoblot was analyzed for pMek expression.
# Pan-Raf protein expression was analyzed to test for equal loading. Two experiments were performed and similar results were obtained.
# pMek1/2 = experiment: Immunohistochemistry of biopsies from Crohn's disease patients for pMek1/2 expression; assay type: in vivo, human; settings: before vs after treatment
# Protocol: Biopsies obtained from Crohn's disease patients (before and after Semapimod treatment) who participated in the Semapimod-pilot study in the AMC, were analyzed by immunohistochemistry.
# Biopsies obtained from Crohn's disease patients (before and after treatment) who participated in the Semapimod-pilot study performed in our department, were analyzed for pMek1/2 expression (the substrate of Raf) by immunohistochemistry (FIGS. 8-9).
# 4/4 macrophages [2] = experiment: Cytotoxic effect in 4/4 macrophages; assay type: cell-based, murine; settings: Semapimod concentrations ≦1 μM
# [3] = CRP serum levels of Crohn's disease patients in the Semapimod pilot study; assay type: in vivo, human
# Excerpt: FIGS. 9A and B show the IHC analysis of Crohn's disease patients who participated in the Semapimod pilot study. […] CRP levels of patient #12 were not affected by Semapimod (e.g. nonresponder). Importantly, pMek1/2 expression was also not affected by Semapimod in this nonresponder. […] This finding correlates with the low CRP levels at baseline (FIG. 9B).
structure (smiles),measurement,setting,value
C/C(=N\NC(=N)N)c1cc(NC(=O)CCCCCCCCC(=O)Nc2cc(/C(C)=N/NC(=N)N)cc(/C(C)=N/NC(=N)N)c2)cc(/C(C)=N/NC(=N)N)c1 [Semapimod],expression of pMKK4/7,4/4 macrophages [1],reduced expression
same,expression of pMek1/2,4/4 macrophages [1],reduced expression
same,"pPak, upstream of Raf",4/4 macrophages [1],not affected
same,pRaf protein levels,4/4 macrophages [1],not affected
same,phosphorylated-Erk1/2,4/4 macrophages [1],decrease
same,phosphorylated-Jnk,4/4 macrophages [1],decrease
same,phosphorylated-P38,4/4 macrophages [1],decrease
same,Raf kinase activity,Raf kinase,inhibited
same,pMek1/2 expression in in vitro kinase assay,Raf kinase; inactive Mek-substrate,reduced pMek1/2 expression
same,"pMek1/2 expression in biopsies, responders","pMek1/2; Crohn's disease patients who responded (n=5), p=0.0348",significant decrease
same,"pMek1/2 expression in biopsies, nonresponder",pMek1/2; one nonresponder (patient 012),increased pMek1/2 expression; also recorded: not affected
same,cytotoxic effect,4/4 macrophages [2],did not have a cytotoxic effect
same,"CRP, responders","[3]; Crohn's disease patients n=5, all responders",CRP decrease
same,"CRP levels, nonresponder",[3]; patient #12,not affected
